According to patent publication US20120184591A1, “METHODS FOR TREATING PROSTATITIS” (WATSON PHARMACEUTICALS, INC., priority 2011, published 2012):
One block for each compound: values may come before it.

What was measured:
patients with CP/CPPS = settings: 10 mg once daily, versus placebo; cited from earlier work
[1] = Study SI06004: plasma pharmacokinetics of silodosin and metabolites, 8 mg once daily for 7 days; assay type: in vivo, human; settings: for Tmax: 8 mg once daily, immediate-release
Protocol: FIG. 2 depicts the mean steady-state silodosin plasma concentration versus time profile in fed target-aged subjects after administering 8 mg silodosin QD (from Study SI06004).
This is illustrated in Table 1 and FIG. 2. Study SI06004 assessed the area under the plasma concentration time curve for silodosin and four of its metabolites, as well as safety and tolerability, following administration of 8 mg once daily for 7 days.

[2] = Study SI07004: silodosin pharmacokinetics after seven daily doses of 4 mg or 8 mg in healthy male subjects; assay type: in vivo, human; settings: after 7 days of dosing; for AUC(0-t) / half-life / Cmax / Tmax: male, human, plasma
From the text: FIG. 3 depicts the mean silodosin plasma concentration time profile by dose level and timepoint after multiple doses (from Study SI07004).

men with CP/CPPS [3] = assay: 12-week double-blind placebo-controlled Phase II study (NCT00740779): efficacy (NIH-CPSI, SF-12, GRA); assay type: in vivo, human; settings: for SF-12 mental component, adjusted mean difference versus placebo (95% CI) / SF-12 mental component, change from baseline, mean ± SD / SF-12 physical component, adjusted mean difference versus placebo (95% CI) / SF-12 physical component, change from baseline, mean ± SD: study end, ITT
Protocol: (§1) A 12-week, multicenter, double-blind, placebo-controlled, Phase II study (ClinicalTrials.gov identifier: NCT00740779) was conducted between September 2008 and October 2009. The protocol was approved by an Institutional Review Board before study initiation, and the study was conducted in accordance with the Declaration of Helsinki and the US Code of Federal Regulations. The primary end point was change from baseline to week 12 in the NIH—CPSI total score. Secondary end points included safety; change from baseline in NIH—CPSI pain, urinary, and HRQoL subscores; and change from baseline in SF-12 physical and mental component scores. In addition, responder analyses were conducted for the global response assessment (GRA) and NIH—CPSI at week 12.
Study participants were recruited from 32 centers across the United States, including mostly community-based practices and a few university medical centers. […] Patients were excluded if they had participated in a study of an investigational agent within the past 30 days, had experienced two or more urinary tract infections within the previous 12 months, or had medical conditions potentially precluding safe study participation or affecting study results, such as significant postural hypotension, abnormal test results of digital rectal examinations (except benign prostate enlargement), prostate-specific antigen >10.0 ng/mL, and liver or renal insufficiency. Patients treated with medications that might confound study results, such as α-blockers (for conditions other than CP/CPPS), 5α-reductase inhibitors, tricyclic antidepressants, androgens, and ketoconazole, had to undergo appropriate washout periods to be eligible.
(§2) Patients were randomized 1:1:1 to receive silodosin 4 mg, silodosin 8 mg, or placebo once daily with food at breakfast for 12 weeks. Two doses of silodosin were chosen to evaluate the dose dependency of treatment effects in patients with CP/CPPS. The maximum dose of silodosin 8 mg/d was selected based on its established safety and efficacy profile in patients with BPH.
(§3) Baseline parameters were assessed after a 4-week screening period. All efficacy assessments were made with self-administered patient surveys. Patients completed the NIH—CPSI and subscales, GRA scale, and pain medication usage surveys at baseline and at weeks 4, 8, and 12 of the study. SF-12 was completed at baseline and at study end (week 12 or time of discontinuation). Safety was monitored over the course of the study through adverse events reporting, clinical laboratory tests, and vital signs assessments.
(§4) All efficacy and safety data were summarized using descriptive statistics for continuous variables and frequency distributions for categorical variables. Efficacy end points were analyzed in the intent-to-treat (ITT) population, which consisted of all randomized patients with a baseline assessment for the NIH—CPSI total score. The primary efficacy variable and continuous secondary variables were analyzed for significance at α=0.05 (with Bonferroni correction for multiple comparisons) using analysis of covariance models with the baseline measurement of the efficacy variable as the covariate and effects of treatment. Because of the small number of patients in many participating centers, study center was not included in statistical analysis models. All analyses were conducted with SAS® v8.2 (SAS Institute Inc., Cary, N.C.). Last observation carried forward (LOCF) was used to impute missing values. […] GRA and NIH—CPSI responder analyses were done with chi-square tests at α=0.025 (two-sided) to account for multiple comparisons.

men with CP/CPPS [4] = assay: 12-week Phase II study (NCT00740779): safety and tolerability (adverse events); assay type: in vivo, human
Protocol: as §1, §2, §3, §4

α1A receptor = target: T1, α1A receptor (Homo sapiens, UniProt P35348); settings: cited from earlier work
T1 sequence (P35348 1-466): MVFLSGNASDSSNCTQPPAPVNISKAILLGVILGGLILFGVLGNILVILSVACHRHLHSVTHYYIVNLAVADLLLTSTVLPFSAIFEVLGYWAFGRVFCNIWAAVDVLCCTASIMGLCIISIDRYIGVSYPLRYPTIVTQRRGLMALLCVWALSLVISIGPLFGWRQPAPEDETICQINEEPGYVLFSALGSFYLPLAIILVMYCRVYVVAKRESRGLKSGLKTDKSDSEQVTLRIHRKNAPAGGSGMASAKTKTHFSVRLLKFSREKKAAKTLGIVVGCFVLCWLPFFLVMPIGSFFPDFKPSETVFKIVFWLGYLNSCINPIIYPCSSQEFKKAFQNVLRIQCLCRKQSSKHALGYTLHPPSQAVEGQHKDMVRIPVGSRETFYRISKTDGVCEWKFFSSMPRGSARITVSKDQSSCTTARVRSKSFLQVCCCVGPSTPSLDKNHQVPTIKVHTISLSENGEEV

[5] = 8 mg once daily for 7 days, mean (SD)
[6] = 4 mg, Week 12 ET (early termination counted as nonresponse)

SMILES: COc1cc2nc(N(C)CCCNC(=O)C3CCCO3)nc(N)c2cc1OC (stereo not shown) [alfuzosin]
Reducing the symptoms of CP/CPPS (patients with CP/CPPS): not more effective than placebo

AUC(0-24) [1, 5]: 1660.5 (647.23) ng * hr/mL
Cmax [1, 5]: 102.4 (36.51) ng/mL
Tmax ([1]; mean (SD)): 5.5 (2.29) hr
SMILES: C[C@H](Cc1cc2c(c(C(N)=O)c1)N(CCCO[C@@H]1O[C@H](C(=O)O)[C@@H](O)[C@H](O)[C@H]1O)CC2)NCCOc1ccccc1OCC(F)(F)F [3213G]

Tmax ([1]; human, plasma, oral, 8 mg, mean (SD), read-out: Tmax): ~2.6 h
AUC(0-t) ([1]; human, plasma, oral, 8 mg once daily for 7 days, mean (SD), read-out: AUC(0-24)): 373 ng·h/mL
Cmax ([1]; human, plasma, oral, 8 mg once daily for 7 days, mean (SD), read-out: Cmax): 61.6 ng/mL
half-life ([1]; human, plasma, oral, 8 mg once daily for 7 days, mean ± SD): 13.3 h
kel, median ([2]; 4 mg): 0.0489 h⁻¹
kel, mean ([2]; 4 mg, n 19): 0.0552 h⁻¹
kel, median ([2]; 8 mg): 0.0573 h⁻¹
kel, mean ([2]; 8 mg, n 21): 0.0551 h⁻¹
AUC(0-t) ([2]; 4 mg, N = 22, read-out: AUC [0-24], mean): 159 ng·h/mL
half-life ([2]; 4 mg, n 19, read-out: t½, mean (converted)): 15.3 h
AUC(0-t) ([2]; 4 mg, read-out: AUC [0-24], median): 156 ng·h/mL
Cmax ([2]; 4 mg, read-out: Cmax, mean): 28.4 ng/mL
Cmax ([2]; 4 mg, read-out: Cmax, median): 26.1 ng/mL
Tmax ([2]; 4 mg, read-out: Tmax, mean): 2.4 h
Tmax ([2]; 4 mg, read-out: Tmax, median): 2 h
half-life ([2]; 4 mg, read-out: t½, median (converted)): 14.2 h
AUC(0-t) ([2]; 8 mg, N = 22, read-out: AUC [0-24], mean): 297 ng·h/mL
half-life ([2]; 8 mg, n 21, read-out: t½, mean (converted)): 14.4 h
AUC(0-t) ([2]; 8 mg, read-out: AUC [0-24], median): 276 ng·h/mL
Cmax ([2]; 8 mg, read-out: Cmax, mean): 51.1 ng/mL
Cmax ([2]; 8 mg, read-out: Cmax, median): 50.3 ng/mL
Tmax ([2]; 8 mg, read-out: Tmax, mean): 2.5 h
Tmax ([2]; 8 mg, read-out: Tmax, median): 2 h
half-life ([2]; 8 mg, read-out: t½, median (converted)): 12.1 h
SMILES: C[C@H](Cc1cc2c(c(C(N)=O)c1)N(CCCO)CC2)NCCOc1ccccc1OCC(F)(F)F [silodosin]
SF-12 mental component, adjusted mean difference versus placebo (95% CI) (men with CP/CPPS [3]; 4 mg once daily): 1.5 (−1.9, 4.9)
SF-12 mental component, change from baseline, mean ± SD (men with CP/CPPS [3]; 4 mg once daily): 3.2 ± 7.3
SF-12 physical component, adjusted mean difference versus placebo (95% CI) (men with CP/CPPS [3]; 4 mg once daily): 3.0 (0.01, 6.0)
SF-12 physical component, change from baseline, mean ± SD (men with CP/CPPS [3]; 4 mg once daily): 4.2±8.1
NIH-CPSI pain score, adjusted mean difference versus placebo (95% CI) (men with CP/CPPS [3]; 4 mg once daily, week 12, ITT): −1.6 (−3.4, 0.3)
NIH-CPSI pain score, change from baseline, mean ± SD (men with CP/CPPS [3]; 4 mg once daily, week 12, ITT): −5.9 ± 4.5
NIH-CPSI quality-of-life impact score, adjusted mean difference versus placebo (95% CI) (men with CP/CPPS [3]; 4 mg once daily, week 12, ITT): −1.5 (−2.8, −0.3)
NIH-CPSI quality-of-life impact score, change from baseline, mean ± SD (men with CP/CPPS [3]; 4 mg once daily, week 12, ITT): −4.1 ± 3.1
NIH-CPSI total score, change from baseline, mean ± SD (men with CP/CPPS [3]; 4 mg once daily, week 12, ITT): −12.1±9.3
NIH-CPSI urinary symptoms score, adjusted mean difference versus placebo (95% CI) (men with CP/CPPS [3]; 4 mg once daily, week 12, ITT): −1.4 (−2.5, −0.3)
NIH-CPSI urinary symptoms score, change from baseline, mean ± SD (men with CP/CPPS [3]; 4 mg once daily, week 12, ITT): −2.2 ± 2.7
GRA responders, patients (men with CP/CPPS [3]; [6]): 55.8%
NIH-CPSI responders, patients (men with CP/CPPS [3]; [6]): 59.6%
SF-12 mental component, adjusted mean difference versus placebo (95% CI) (men with CP/CPPS [3]; 8 mg once daily): −1.4 (−4.9, 2.1)
SF-12 mental component, change from baseline, mean ± SD (men with CP/CPPS [3]; 8 mg once daily): 0.5 ± 7.2
SF-12 physical component, adjusted mean difference versus placebo (95% CI) (men with CP/CPPS [3]; 8 mg once daily): 2.7 (−0.4, 5.8)
SF-12 physical component, change from baseline, mean ± SD (men with CP/CPPS [3]; 8 mg once daily): 4.4 ± 7.0
NIH-CPSI pain score, adjusted mean difference versus placebo (95% CI) (men with CP/CPPS [3]; 8 mg once daily, week 12, ITT): −0.5 (−2.4, 1.4)
NIH-CPSI pain score, change from baseline, mean ± SD (men with CP/CPPS [3]; 8 mg once daily, week 12, ITT): −4.9 ± 5.0
NIH-CPSI quality-of-life impact score, adjusted mean difference versus placebo (95% CI) (men with CP/CPPS [3]; 8 mg once daily, week 12, ITT): −0.7 (−2.0, 0.5)
NIH-CPSI quality-of-life impact score, change from baseline, mean ± SD (men with CP/CPPS [3]; 8 mg once daily, week 12, ITT): −3.5 ± 3.0
NIH-CPSI urinary symptoms score, adjusted mean difference versus placebo (95% CI) (men with CP/CPPS [3]; 8 mg once daily, week 12, ITT): −0.8 (−1.9, 0.3)
NIH-CPSI urinary symptoms score, change from baseline, mean ± SD (men with CP/CPPS [3]; 8 mg once daily, week 12, ITT): −1.8 ± 2.4
NIH-CPSI responders, patients (men with CP/CPPS [3]; 8 mg, Week 12 ET (early termination counted as nonresponse)): 46.7%
Drug-related adverse events leading to discontinuation, all (men with CP/CPPS [4]; 4 mg): 3 n
Drug-related adverse events leading to discontinuation: RE/libido decreased (men with CP/CPPS [4]; 4 mg): 1 n
Drug-related adverse events leading to discontinuation: ejaculation failure (men with CP/CPPS [4]; 4 mg): 1 n
Drug-related adverse events leading to discontinuation: rash (men with CP/CPPS [4]; 4 mg): 1 n
Patients who discontinued study participation because of a drug-related adverse event (men with CP/CPPS [4]; 4 mg): 5.8%
Drug-related adverse event: Headache, patients (men with CP/CPPS [4]; 4 mg, safety population (n = 52)): 0 n
Patients who experienced serious adverse events (men with CP/CPPS [4]; 4 mg, not considered drug-related by the investigator (severe urosepsis; moderate syncope)): Two
Drug-related adverse events leading to discontinuation, all (men with CP/CPPS [4]; 8 mg): 6 n
Drug-related adverse events leading to discontinuation: RE (men with CP/CPPS [4]; 8 mg): 4 n
Drug-related adverse events leading to discontinuation: nasal congestion (men with CP/CPPS [4]; 8 mg): 2 n
Patients who discontinued study participation because of a drug-related adverse event (men with CP/CPPS [4]; 8 mg): 13.3%
Selectivity for the α1A receptor relative to α1B and α1D receptors (α1A receptor): high selectivity

AUC(0-24) [1, 5]: 373.0 (141.72) ng * hr/mL
Cmax [1, 5]: 34.3 (12.58) ng/mL
Tmax ([1]; mean (SD)): 4.1 (1.29) hr
SMILES: C[C@H](Cc1cc2c(c(C(N)=O)c1)N(CCC(=O)O)CC2)NCCOc1ccccc1OCC(F)(F)F [compound 3293]
